According to patent US20090156575A1, “NOVEL DIAZASPIROALKANES AND THEIR USE FOR TREATMENT OF CCR8 MEDIATED DISEASES” (priority 2005, published 2009):
Structures can show the parent of a compound that is named as a salt.

Target: T1, human recombinant chemokine CCR8 receptor (Homo sapiens, UniProt P51685)
T1 construct: purchased Euroscreen ES-136-M; host or cells: CHO-K1 cells (transfected), membrane preparation
Experiment: CCL1 SPA binding assay
Settings: IC50 (nM), membranes from CHO-K1 cells transfected with human CCR8; 125I CCL1 displacement, SPA beads
Description: Membranes from CHO-K1 cells transfected with human recombinant chemokine CCR8 receptor (ES-136-M) were purchased from Euroscreen. Membrane preparations are stored at −70 C in 7.5 mM Tris-Cl pH 7.5, 12.5 mM MgCl2, 0.3 mM EDTA, 1 mM EGTA, 250 mM sucrose until used.
The CCR8 membranes (50.6 mg/ml) were preincubated with Wheat Germ Agglutinin SPA beads (4.05 mg/ml) in assay buffer (50 mM HEPES, 1 mM CaCl2×2H2O, 5 mM MgCl2×6H2O, 75 mM NaCl, 0.1% BSA) at pH=7.4 for 2 hours on ice. A […] dose-response curve (final concentrations 50 μM, 16.7 μM, 5.6 μM, 1.9 μM, 0.62 μM, 0.21 μM, 0.069 μM, 0.023 μM) was prepared by diluting compounds by serial dilution 1:3 in DMSO. In the screening plate (Polystyrene NBS plates, Costar Corning 3604) 1 μl from the DMSO solutions of compounds was transferred into each well. 1 μl of DMSO was added to the blank control wells and 1 μl unlabeled CCL1 (300 nM) was added to background control wells. 50 μl of the SPA bead-membrane mixture was added into each well. Finally, 50 μl ([…]) ^125I CCL1 (2000 Ci/mM) was added to each well. Plates were then incubated at RT with shaking (700 rpm) for 90 minutes followed by 30 minutes at RT without shaking. The plate was read in a Wallac MicroBeta counter for 2 minutes/well.

T1 sequence (P51685 whole entry): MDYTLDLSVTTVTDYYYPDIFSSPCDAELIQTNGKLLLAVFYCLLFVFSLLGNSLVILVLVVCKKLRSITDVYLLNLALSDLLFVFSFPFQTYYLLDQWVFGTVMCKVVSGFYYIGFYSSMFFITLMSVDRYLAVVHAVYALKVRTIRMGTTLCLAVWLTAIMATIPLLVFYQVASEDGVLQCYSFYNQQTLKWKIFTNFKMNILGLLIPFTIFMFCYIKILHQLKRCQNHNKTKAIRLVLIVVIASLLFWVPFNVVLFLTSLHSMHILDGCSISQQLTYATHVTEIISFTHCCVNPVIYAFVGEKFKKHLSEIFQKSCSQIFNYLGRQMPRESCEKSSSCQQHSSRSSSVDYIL

Row | SMILES | IC50 [nM]
1 | CC1(C)Cc2c(CN3CCC4(CC3)CCN(C(=O)c3ccc(N)cn3)CC4)cccc2O1 [Example 86, 6-({9-[(2,2-dimethyl-2,3-dihydro-1-benzofuran-4-yl)methyl]-3,9-diazaspiro[5.5]undec-3-yl}carbonyl)pyridin-3-amine Trifluoroacetate] | 8

Same assay, conditions: membranes from CHO-K1 cells transfected with human CCR8; 125I CCL1 displacement, SPA beads; read-out: IC50

Row | SMILES | IC50 [nM]
2 | CC1(C)COc2c(CN3CCC4(CC3)CCN(C(=O)c3ccc(N)cn3)CC4)cccc2O1 [Example 173, 6-({9-[(2,2-dimethyl-2,3-dihydro-1,4-benzodioxin-5-yl)methyl]-3,9-diazaspiro[5.5]undec-3-yl}carbonyl)pyridin-3-amine Trifluoroacetate] | 21
3 | CC1(C)Cc2c(CN3CCC4(CC3)CCN(C(=O)c3ccncc3CC(N)=O)CC4)cccc2O1 [Example 159, 2-[4-({9-[(2,2-dimethyl-2,3-dihydro-1-benzofuran-4-yl)methyl]-3,9-diazaspiro[5.5]undec-3-yl}carbonyl)pyridin-3-yl]acetamide] | 87
4 | CC1(C)Cc2cccc(CN3CCC4(CC3)CCN(C(=O)c3ccno3)CC4)c2O1 [Example 31, 3-[(2,2-dimethyl-2,3-dihydro-1-benzofuran-7-yl)methyl]-9-(isoxazol-5-ylcarbonyl)-3,9-diazaspiro[5.5]undecane Trifluoroacetate] | 10
5 | CC1(C)Cc2cccc(CN3CCC4(CC3)CCN(C(=O)c3ccc5cc[nH]c5c3)CC4)c2O1 [Example 68, 3-[(2,2-dimethyl-2,3-dihydro-1-benzofuran-7-yl)methyl]-9-(1H-indol-6-ylcarbonyl)-3,9-diazaspiro[5.5]undecane Acetate] | 8
6 | CC1(C)COc2cccc(CN3CCC4(CC3)CCN(C(=O)c3ccncc3CC(N)=O)CC4)c2O1 [Example 143, 2-[4-({9-[(3,3-dimethyl-2,3-dihydro-1,4-benzodioxin-5-yl)methyl]-3,9-diazaspiro[5.5]undec-3-yl}carbonyl)pyridin-3-yl]acetamide Ditrifluoroacetate] | 32
7 | CC1(C)Cc2cccc(CN3CCC4(CC3)CCN(C(=O)CCc3nc(-c5ccccn5)no3)CC4)c2O1 [Example 111, 3-[(2,2-dimethyl-2,3-dihydro-1-benzofuran-7-yl)methyl]-9-[3-(3-pyridin-2-yl-1,2,4-oxadiazol-5-yl)propanoyl]-3,9-diazaspiro[5.5]undecane] | 104
8 | COC(=O)Cc1ccccc1C(=O)N1CCC2(CCN(Cc3cccc4c3OC(C)(C)C4)CC2)CC1 [Example 5, Methyl [2-({9-[(2,2-dimethyl-2,3-dihydro-1-benzofuran-7-yl)methyl]-3,9-diazaspiro[5.5]undec-3-yl}carbonyl)phenyl]acetate] | 9
9 | CC1(C)Cc2cccc(CN3CCC4(CC3)CCN(C(=O)c3cccc5c3NC(=O)C5=O)CC4)c2O1 [Example 63, 7-({9-[(2,2-dimethyl-2,3-dihydro-1-benzofuran-7-yl)methyl]-3,9-diazaspiro[5.5]undec-3-yl}carbonyl)-1H-indole-2,3-dione Trifluoroacetate] | 143
10 | CC1(C)C=Cc2cccc(CN3CCC4(CC3)CN(C(=O)c3ccncc3)C4)c2O1 [Example 139, 7-[(2,2-dimethyl-2H-chromen-8-yl)methyl]-2-isonicotinoyl-2,7-diazaspiro[3.5]nonane] | 70
11 | COC(=O)Cc1ccccc1C(=O)N1CCC2(CCN(Cc3cccc4c3OC(C)(C)C4)CC2)CC1 [Example 181, Methyl [2-({9-[(2,2-dimethyl-2,3-dihydro-1-benzofuran-7-yl)methyl]-3,9-diazaspiro[5.5]undec-3-yl}carbonyl)phenyl]acetate] | 72
12 | CC1(C)Cc2cccc(CN3CCC4(CC3)CCN(C(=O)c3ccccc3CC(=O)N3CCC[C@@H]3C(N)=O)CC4)c2O1 [Example 18, 1-{[2-({9-[(2,2-dimethyl-2,3-dihydro-1-benzofuran-7-yl)methyl]-3,9-diazaspiro[5.5]undec-3-yl}carbonyl)phenyl]acetyl}-D-prolinamide] | 57
13 | CC1(C)Cc2c(CN3CCC4(CC3)CCN(C(=O)c3ccnc(N)n3)CC4)cccc2O1 [Example 124, 4-({9-[(2,2-dimethyl-2,3-dihydro-1-benzofuran-4-yl)methyl]-3,9-diazaspiro[5.5]undec-3-yl}carbonyl)pyrimidin-2-amine] | 12

Now from value to compound:

Row | IC50 [nM] | SMILES
14 | 12 | CC1(C)Cc2cccc(CN3CCC4(CC3)CCN(C(=O)c3ccncc3)CC4)c2O1 [Example 1, 3-[(2,2-dimethyl-2,3-dihydro-1-benzofuran-7-yl)methyl]-9-isonicotinoyl-3,9-diazaspiro[5.5]undecane Trifluoroacetate]
15 | 23 | CC1(C)Oc2cccc(CN3CCC4(CC3)CCN(C(=O)c3ncccc3N)CC4)c2O1 [Example 92, 2-({9-[(2,2-dimethyl-1,3-benzodioxol-4-yl)methyl]-3,9-diazaspiro[5.5]undec-3-yl}carbonyl)pyridin-3-amine]
16 | 84 | CC1(C)Oc2cccc(CN3CCC4(CC3)CCN(C(=O)c3ccc(N)[nH]c3=O)CC4)c2O1 [Example 133, 6-amino-3-({9-[(2,2-dimethyl-1,3-benzodioxol-4-yl)methyl]-3,9-diazaspiro[5.5]undec-3-yl}carbonyl)pyridin-2(1H)-one]
17 | 53 | CC1(C)COc2c(CN3CCC4(CC3)CCN(C(=O)c3ccncc3)CC4)cccc2O1 [Example 110, 3-[(2,2-dimethyl-2,3-dihydro-1,4-benzodioxin-5-yl)methyl]-9-isonicotinoyl-3,9-diazaspiro[5.5]undecane Trifluoroacetate]
18 | 50 | CC1(C)Cc2c(CN3CCC4(CC3)CN(C(=O)c3ccnc(N)n3)C4)cccc2O1 [Example 157, 4-({7-[(2,2-dimethyl-2,3-dihydro-1-benzofuran-4-yl)methyl]-2,7-diazaspiro[3.5]non-2-yl}carbonyl)pyrimidin-2-amine]
19 | 38 | CC1(C)Cc2cccc(CN3CCC4(CC3)CCN(C(=O)c3ccccc3NC(=O)C3CCCO3)CC4)c2O1 (stereo not shown) [Example 49, N-[2-({9-[(2,2-dimethyl-2,3-dihydro-1-benzofuran-7-yl)methyl]-3,9-diazaspiro[5.5]undec-3-yl}carbonyl)phenyl]tetrahydrofuran-2-carboxamide]
